Laboratory results reported in PubChem BioAssay AID248 (DTP/NCI, 2004).
Inconclusive results and toxic doses are left out. No stated cut-off is given here; in the data, active means T/C of 150% or more; inactive means T/C below 125%.

Tested on: L1210 leukemia ip in BDF1 mice, survival T/C
Assay: NCI In Vivo Anticancer Drug Screen. Data for tumor model L1210 Leukemia (intraperitoneal) in B6D2F1 (BDF1) mice
Settings: endpoint: mean survival time, higher = longer survival
Procedure, shortened: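 Transplanted-tumor mice were given test agent; controls received vehicle only. Survival readings from the two groups were divided (treated over control).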

[1] = dose: 50.0 mg/kg/injection, schedule: Q01DX009 (ip), vehicle: saline with Tween-80
[2] = dose: 100.0 mg/kg/injection, schedule: Q01DX001 (ip), vehicle: carboxymethylcellulose (CMC)
[3] = dose: 100.0 mg/kg/injection, schedule: Q01DX009 (ip), vehicle: saline with Tween-80
[4] = dose: 100.0 mg/kg/injection, schedule: Q04DX003 (ip), vehicle: saline with Tween-80
[5] = dose: 200.0 mg/kg/injection, schedule: Q01DX001 (ip), vehicle: carboxymethylcellulose (CMC)
[6] = dose: 50.0 mg/kg/injection, schedule: Q01DX001 (ip), vehicle: saline
[7] = dose: 100.0 mg/kg/injection, schedule: Q01DX001 (ip), vehicle: saline
[8] = dose: 100.0 mg/kg/injection, schedule: Q01DX009 (ip), vehicle: Klucel (hydroxypropylcellulose) (HPC)
[9] = dose: 200.0 mg/kg/injection, schedule: Q01DX009 (ip), vehicle: Klucel (hydroxypropylcellulose) (HPC)
[10] = dose: 400.0 mg/kg/injection, schedule: Q01DX009 (ip), vehicle: Klucel (hydroxypropylcellulose) (HPC)
[11] = dose: 400.0 mg/kg/injection, schedule: Q01DX001 (ip), vehicle: carboxymethylcellulose (CMC)
[12] = dose: 200.0 mg/kg/injection, schedule: Q01DX009 (ip), vehicle: saline with Tween-80
[13] = dose: 200.0 mg/kg/injection, schedule: Q01DX001 (ip), vehicle: saline
[14] = dose: 400.0 mg/kg/injection, schedule: Q01DX001 (ip), vehicle: saline

Measured: T/C

CC(=O)Nc1ccc2c(c1)C[N+](C)(C1CCCCC1)CO2 (centres undefined)
inactive: dose: 25.0 mg/kg/injection, schedule: Q01DX009 (ip), vehicle: saline with Tween-80 101 % of control | dose: 25.0 mg/kg/injection, schedule: Q01DX015 (ip), vehicle: carboxymethylcellulose (CMC) 103 % of control | [1] 95 % of control | dose: 50.0 mg/kg/injection, schedule: Q01DX015 (ip), vehicle: carboxymethylcellulose (CMC) 98 % of control | dose: 50.0 mg/kg/injection, schedule: Q04DX003 (ip), vehicle: saline with Tween-80 97 % of control | [2] 92 % of control | [3] 95 % of control | [4] 100 % of control | [5] 94 % of control

COc1cc(C)n2nnnc2n1
inactive: dose: 25.0 mg/kg/injection, schedule: Q01DX001 (ip), vehicle: saline 91 % of control | [6] 96 % of control | [7] 96 % of control

O=S1(=O)C=C(Cl)C2C3CC(C(Cl)C3Cl)C21 (centres undefined)
inactive: dose: 5.0 mg/kg/injection, schedule: Q01DX009 (ip), vehicle: carboxymethylcellulose (CMC) 94 % of control | dose: 10.0 mg/kg/injection, schedule: Q01DX001 (ip), vehicle: carboxymethylcellulose (CMC) 94 % of control | dose: 10.0 mg/kg/injection, schedule: Q01DX009 (ip), vehicle: carboxymethylcellulose (CMC) 94 % of control | dose: 10.0 mg/kg/injection, schedule: Q04DX003 (ip), vehicle: carboxymethylcellulose (CMC) 92 % of control | dose: 20.0 mg/kg/injection, schedule: Q01DX001 (ip), vehicle: carboxymethylcellulose (CMC) 100 % of control | dose: 20.0 mg/kg/injection, schedule: Q01DX009 (ip), vehicle: carboxymethylcellulose (CMC) 91 % of control | dose: 20.0 mg/kg/injection, schedule: Q04DX003 (ip), vehicle: carboxymethylcellulose (CMC) 94 % of control | dose: 40.0 mg/kg/injection, schedule: Q01DX001 (ip), vehicle: carboxymethylcellulose (CMC) 103 % of control | dose: 40.0 mg/kg/injection, schedule: Q04DX003 (ip), vehicle: carboxymethylcellulose (CMC) 94 % of control

O=C(Nc1ccccc1)/C(Cl)=C/O
inactive: dose: 100.0 mg/kg/injection, schedule: Q04DX002 (ip), vehicle: Klucel (hydroxypropylcellulose) (HPC) 91 % of control | dose: 200.0 mg/kg/injection, schedule: Q04DX002 (ip), vehicle: Klucel (hydroxypropylcellulose) (HPC) 94 % of control | dose: 400.0 mg/kg/injection, schedule: Q04DX002 (ip), vehicle: Klucel (hydroxypropylcellulose) (HPC) 97 % of control

CCOC(=O)/C=C\CBr
inactive: dose: 4.0 mg/kg/injection, schedule: Q01DX015 (ip), vehicle: carboxymethylcellulose (CMC) 95 % of control | dose: 8.0 mg/kg/injection, schedule: Q01DX015 (ip), vehicle: carboxymethylcellulose (CMC) 93 % of control | dose: 16.0 mg/kg/injection, schedule: Q01DX015 (ip), vehicle: carboxymethylcellulose (CMC) 93 % of control | dose: 32.0 mg/kg/injection, schedule: Q01DX015 (ip), vehicle: carboxymethylcellulose (CMC) 101 % of control | [7] 104 % of control

CCOC(=O)c1c(C)[nH]c(-c2ccccc2)c1C
inactive: [8] 109 % of control | dose: 100.0 mg/kg/injection, schedule: Q04DX003 (ip), vehicle: Klucel (hydroxypropylcellulose) (HPC) 102 % of control | [9] 97 % of control | dose: 200.0 mg/kg/injection, schedule: Q04DX003 (ip), vehicle: Klucel (hydroxypropylcellulose) (HPC) 100 % of control | [10] 95 % of control | dose: 400.0 mg/kg/injection, schedule: Q04DX003 (ip), vehicle: Klucel (hydroxypropylcellulose) (HPC) 94 % of control

O=C1OCc2cc[n+]([O-])cc21
inactive: [2] 97 % of control | [5] 96 % of control | [11] 107 % of control

CC1(C)C=CS1(=O)=O
inactive: [1] 98 % of control | [3] 102 % of control | [12] 95 % of control

CC(C)C1(c2ccsc2)NC(=O)NC1=O (centres undefined)
inactive: [7] 94 % of control | [13] 100 % of control | [14] 91 % of control

CN=C1c2ccccc2C2(c3ccccc3)C1N2C (centres undefined)
inactive: [3] 95 % of control | dose: 100.0 mg/kg/injection, schedule: Q04DX003 (ip), vehicle: saline sonified 121 % of control | [12] 94 % of control | dose: 200.0 mg/kg/injection, schedule: Q04DX003 (ip), vehicle: saline sonified 108 % of control | dose: 400.0 mg/kg/injection, schedule: Q04DX003 (ip), vehicle: saline sonified 101 % of control

COc1cc([N+](=O)[O-])ccc1NC(=O)Oc1ccc(-c2ccccc2)cc1
inactive: [8] 95 % of control | [9] 95 % of control | [10] 98 % of control

O=C1NC(=O)C(=Cc2ccccc2[N+](=O)[O-])C(=O)N1
inactive: [2] 93 % of control | [5] 91 % of control | [11] 87 % of control

COC(=O)c1ccc(N(C)CC2=Nc3c(nc(N)nc3SCc3ccccc3)NC2)cc1
inactive: dose: 100.0 mg/kg/injection, schedule: Q01DX001 (ip), vehicle: saline with Tween-80 97 % of control | dose: 200.0 mg/kg/injection, schedule: Q01DX001 (ip), vehicle: saline with Tween-80 108 % of control | dose: 400.0 mg/kg/injection, schedule: Q01DX001 (ip), vehicle: saline with Tween-80 101 % of control

CCOc1ccc(NC(=O)OCCOc2ccccc2)cc1
inactive: [8] 104 % of control | [9] 100 % of control | [10] 94 % of control

CC(=O)Nc1ccc(/C=N\NC(=O)CCCC(=O)N/N=C/c2ccc(NC(C)=O)cc2)cc1
inactive: [6] 104 % of control | [7] 96 % of control | dose: 100.0 mg/kg/injection, schedule: Q01DX009 (ip), vehicle: saline 91 % of control | [13] 92 % of control | [14] 98 % of control | dose: 400.0 mg/kg/injection, schedule: Q01DX009 (ip), vehicle: saline 88 % of control

NC(=S)N/N=C\c1cn(Cc2ccccc2)c2ccccc12
inactive: [6] 95 % of control | [7] 101 % of control | [13] 101 % of control | [14] 97 % of control

NC(N)=N/N=C/c1ccccc1 (tested in a mixture with another compound)
inactive: dose: 12.5 mg/kg/injection, schedule: Q04DX003 (ip), vehicle: acetone 93 % of control | dose: 25.0 mg/kg/injection, schedule: Q04DX003 (ip), vehicle: acetone 96 % of control | dose: 50.0 mg/kg/injection, schedule: Q04DX003 (ip), vehicle: acetone 91 % of control

CCC[Si](Cl)(CCC)CCC
inactive: dose: 18.75 mg/kg/injection, schedule: Q01DX009 (ip), vehicle: acetone 98 % of control | dose: 37.5 mg/kg/injection, schedule: Q01DX009 (ip), vehicle: acetone 94 % of control | dose: 37.5 mg/kg/injection, schedule: Q04DX003 (ip), vehicle: acetone 99 % of control | dose: 75.0 mg/kg/injection, schedule: Q01DX001 (ip), vehicle: acetone 93 % of control | dose: 75.0 mg/kg/injection, schedule: Q01DX009 (ip), vehicle: acetone 96 % of control | dose: 75.0 mg/kg/injection, schedule: Q04DX003 (ip), vehicle: acetone 94 % of control | dose: 150.0 mg/kg/injection, schedule: Q01DX001 (ip), vehicle: acetone 101 % of control | dose: 150.0 mg/kg/injection, schedule: Q04DX003 (ip), vehicle: acetone 100 % of control | dose: 300.0 mg/kg/injection, schedule: Q01DX001 (ip), vehicle: acetone 86 % of control

CC(=O)OC1CCCC(OCC(C)C)O1 (centres undefined)
inactive: dose: 40.0 mg/kg/injection, schedule: Q01DX Z (ip), vehicle: saline 94 % of control | dose: 60.0 mg/kg/injection, schedule: Q01DX Z (ip), vehicle: saline 92 % of control

COc1ccc2c(c1)C1(C)CCCC(C)(C(=O)O)C1C(Br)C2=O (centres undefined)
inactive: [7] 104 % of control | [13] 101 % of control | [14] 102 % of control

CCC(=O)n1ncc2ccc([N+](=O)[O-])cc21
inactive: [4] 103 % of control | dose: 200.0 mg/kg/injection, schedule: Q04DX003 (ip), vehicle: saline with Tween-80 88 % of control | dose: 400.0 mg/kg/injection, schedule: Q04DX003 (ip), vehicle: saline with Tween-80 93 % of control

N/N=C1\c2ccccc2-c2ccc([N+](=O)[O-])cc21
inactive: [2] 95 % of control | [5] 93 % of control | [11] 95 % of control

CCCCCC/C=N/Nc1ccc([N+](=O)[O-])cc1[N+](=O)[O-]
inactive: [1] 101 % of control | [3] 102 % of control | [12] 91 % of control

O=C(O)Cc1ccccc1Cl
inactive: dose: 100.0 mg/kg/injection, schedule: Q01DX009 (ip), vehicle: gum acacia 100 % of control | dose: 200.0 mg/kg/injection, schedule: Q01DX009 (ip), vehicle: gum acacia 96 % of control
